The values below come from ChEMBL document CHEMBL6096706, “Discovery of WDR5-MLL1 and HDAC Dual-Target Inhibitors for the Treatment of Acute Myeloid Leukemia” (J Med Chem, 2025).

Series [1] concerns MV4-11. Kind of series: Antiproliferative activity against human MV4-11 cells assessed as growth inhibition at 0.2 uM measured after 72 hrs in presence of 0.2 uM of vorinostat by CellTiterGlo assay. Format: functional. Particulars: read-out: GI. A general note: ATP-based viability assays read luminescence as a measure of living cells.
For series [2], the system named is MV4-11. Description: Antiproliferative activity against human MV4-11 cells assessed as growth inhibition at 0.1 uM measured after 72 hrs by CellTiterGlo assay. It is filed as functional. Particulars: read-out: GI.
In series [3] the test system is MV4-11. Kind of series: Induction of apoptosis in human MV4-11 cells assessed as necrotic cells at 200 nM incubated for 72 hrs by Annexin V/PI staining based flow cytometry analysis (reference value: 2.61%). Format: functional.
The subject of series [4] is MV4-11. Description: Induction of apoptosis in human MV4-11 cells assessed as early apoptotic cells at 400 nM incubated for 72 hrs in presence of vorinostat by Annexin V/PI staining based flow cytometry analysis (reference value: 0.76 %). It is filed as functional. (A flow cytometer gives signals particle by particle.)
Series [5] has as its system MV4-11. Description: Antiproliferative activity against human MV4-11 cells assessed as growth inhibition at 0.1 uM measured after 72 hrs in presence of 1 uM of vorinostat by CellTiterGlo assay. It is filed as functional. Conditions: read-out: GI.
Series [6] relates to MV4-11. Kind of series: Antiproliferative activity against human MV4-11 cells assessed as growth inhibition at 0.5 uM measured after 72 hrs in presence of 0.4 uM of vorinostat by CellTiterGlo assay. Format: functional. Particulars: read-out: GI.
In series [7] the test system is MV4-11. Description: Antiproliferative activity against human MV4-11 cells assessed as growth inhibition at 0.2 uM measured after 72 hrs in presence of 0.05 uM of vorinostat by CellTiterGlo assay. Format: functional. Conditions: read-out: GI.
The test system of series [8] is MV4-11. Kind of series: Antiproliferative activity against human MV4-11 cells assessed as growth inhibition at 0.1 uM measured after 72 hrs in presence of 0.2 uM of vorinostat by CellTiterGlo assay. Conditions: read-out: GI. It is filed as functional.
For series [9], the system named is MV4-11. Kind of series: Antiproliferative activity against human MV4-11 cells assessed as growth inhibition at 0.5 uM measured after 72 hrs in presence of 0.5 uM of vorinostat by CellTiterGlo assay. Format: functional. Particulars: read-out: GI.
The subject of series [10] is MV4-11. Description: Antiproliferative activity against human MV4-11 cells assessed as growth inhibition at 1 uM measured after 72 hrs in presence of 0.5 uM of vorinostat by CellTiterGlo assay. Format: functional. Particulars: read-out: GI.
For series [11], the system named is MV4-11. Description: Antiproliferative activity against human MV4-11 cells assessed as growth inhibition at 0.4 uM measured after 72 hrs in presence of 0.5 uM of vorinostat by CellTiterGlo assay. It is filed as functional. Conditions: read-out: GI.
Series [12] concerns MV4-11. Description: Induction of apoptosis in human MV4-11 cells assessed as necrotic cells at 400 nM incubated for 72 hrs in presence of vorinostat by Annexin V/PI staining based flow cytometry analysis (reference value: 2.61%). It is filed as functional.
In series [13] the test system is MV4-11. Kind of series: Antiproliferative activity against human MV4-11 cells assessed as growth inhibition at 0.2 uM measured after 72 hrs in presence of 0.5 uM of vorinostat by CellTiterGlo assay. It is filed as functional. Conditions: read-out: GI.
The test system of series [14] is MV4-11. Kind of series: Antiproliferative activity against human MV4-11 cells assessed as growth inhibition at 0.05 uM measured after 72 hrs in presence of 0.2 uM of vorinostat by CellTiterGlo assay. It is filed as functional. Conditions: read-out: GI.
Series [15] concerns MV4-11. Kind of series: Antiproliferative activity against human MV4-11 cells assessed as growth inhibition at 2 uM measured after 72 hrs in presence of 0.4 uM of vorinostat by CellTiterGlo assay. It is filed as functional. Conditions: read-out: GI.
The subject of series [16] is MV4-11. Description: Induction of apoptosis in human MV4-11 cells assessed as necrotic cells at 200 nM incubated for 72 hrs in presence of vorinostat by Annexin V/PI staining based flow cytometry analysis (reference value: 2.61%). Format: functional.
Series [17] relates to MV4-11. Kind of series: Antiproliferative activity against human MV4-11 cells assessed as growth inhibition at 0.4 uM measured after 72 hrs in presence of 0.1 uM of vorinostat by CellTiterGlo assay. Format: functional. Particulars: read-out: GI.
Series [18] has as its system MV4-11. Kind of series: Antiproliferative activity against human MV4-11 cells assessed as growth inhibition at 0.05 uM measured after 72 hrs in presence of 0.05 uM of vorinostat by CellTiterGlo assay. Format: functional. Particulars: read-out: GI.
The test system of series [19] is MV4-11. Kind of series: Antiproliferative activity against human MV4-11 cells assessed as growth inhibition at 1 uM measured after 72 hrs in presence of 0.2 uM of vorinostat by CellTiterGlo assay. It is filed as functional. Particulars: read-out: GI.
Series [20] has as its system MV4-11. Description: Antiproliferative activity against human MV4-11 cells assessed as growth inhibition at 1 uM measured after 72 hrs in presence of 0.1 uM of vorinostat by CellTiterGlo assay. Conditions: read-out: GI. It is filed as functional.
Series [21] deals with MV4-11. Description: Antiproliferative activity against human MV4-11 cells assessed as growth inhibition at 0.2 uM measured after 72 hrs by CellTiterGlo assay. It is filed as functional. Conditions: read-out: GI.
In series [22] the test system is MV4-11. Description: Induction of apoptosis in human MV4-11 cells assessed as late apoptotic cells at 400 nM incubated for 72 hrs in presence of vorinostat by Annexin V/PI staining based flow cytometry analysis (reference value: 6.42 %). Format: functional.
The subject of series [23] is MV4-11. Description: Induction of apoptosis in human MV4-11 cells assessed as late apoptotic cells at 200 nM incubated for 72 hrs by Annexin V/PI staining based flow cytometry analysis (reference value: 6.42%). Format: functional.
Series [24] deals with MV4-11. Description: Antiproliferative activity against human MV4-11 cells assessed as growth inhibition at 0.4 uM measured after 72 hrs in presence of 0.05 uM of vorinostat by CellTiterGlo assay. Conditions: read-out: GI. Format: functional.
The subject of series [25] is MV4-11. Description: Induction of apoptosis in human MV4-11 cells assessed as necrotic cells at 600 nM incubated for 72 hrs in presence of vorinostat by Annexin V/PI staining based flow cytometry analysis (reference value: 2.61%). It is filed as functional.
The test system of series [26] is MV4-11. Description: Induction of apoptosis in human MV4-11 cells assessed as early apoptotic cells at 200 nM incubated for 72 hrs by Annexin V/PI staining based flow cytometry analysis (reference value: 0.76%). Format: functional.
In series [27] the test system is MV4-11. Kind of series: Antiproliferative activity against human MV4-11 cells assessed as growth inhibition at 0.4 uM measured after 72 hrs in presence of 1 uM of vorinostat by CellTiterGlo assay. Format: functional. Conditions: read-out: GI.
The test system of series [28] is MV4-11. Description: Antiproliferative activity against human MV4-11 cells assessed as growth inhibition at 1 uM measured after 72 hrs in presence of 0.05 uM of vorinostat by CellTiterGlo assay. It is filed as functional. Conditions: read-out: GI.
The subject of series [29] is MV4-11. Description: Antiproliferative activity against human MV4-11 cells assessed as growth inhibition at 2 uM measured after 72 hrs in presence of 0.5 uM of vorinostat by CellTiterGlo assay. Format: functional. Conditions: read-out: GI.
The nature of series [30]: Toxicity in mouse implanted in human MV4-11 cells assessed as spleen damage at 10 to 30 mg/kg, ip administered daily for 17 days by H and E staining based analysis. Conditions: in vivo, 408 h, dose 10-30 mg/kg, time 17 day. Format: organism-based.
Series [31] has as its system MV4-11. Kind of series: Induction of apoptosis in human MV4-11 cells assessed as early apoptotic cells at 100 nmol/L incubated for 72 hrs by Annexin V/PI staining based flow cytometry analysis (reference value: 4.17 %). It is filed as functional.
A short description of series [32]: Toxicity in mouse implanted in human MV4-11 cells assessed as kidney damage at 10 to 30 mg/kg, ip administered daily for 17 days by H and E staining based analysis. Format: organism-based. Conditions: in vivo, 408 h, dose 10-30 mg/kg, time 17 day.
The target in a further series is Histone deacetylase 4 (Homo sapiens, UniProt P56524). Kind of series: Inhibition of HDAC4 (unknown origin) by fluorescence based assay.
Chain of Histone deacetylase 4 (P56524 whole entry): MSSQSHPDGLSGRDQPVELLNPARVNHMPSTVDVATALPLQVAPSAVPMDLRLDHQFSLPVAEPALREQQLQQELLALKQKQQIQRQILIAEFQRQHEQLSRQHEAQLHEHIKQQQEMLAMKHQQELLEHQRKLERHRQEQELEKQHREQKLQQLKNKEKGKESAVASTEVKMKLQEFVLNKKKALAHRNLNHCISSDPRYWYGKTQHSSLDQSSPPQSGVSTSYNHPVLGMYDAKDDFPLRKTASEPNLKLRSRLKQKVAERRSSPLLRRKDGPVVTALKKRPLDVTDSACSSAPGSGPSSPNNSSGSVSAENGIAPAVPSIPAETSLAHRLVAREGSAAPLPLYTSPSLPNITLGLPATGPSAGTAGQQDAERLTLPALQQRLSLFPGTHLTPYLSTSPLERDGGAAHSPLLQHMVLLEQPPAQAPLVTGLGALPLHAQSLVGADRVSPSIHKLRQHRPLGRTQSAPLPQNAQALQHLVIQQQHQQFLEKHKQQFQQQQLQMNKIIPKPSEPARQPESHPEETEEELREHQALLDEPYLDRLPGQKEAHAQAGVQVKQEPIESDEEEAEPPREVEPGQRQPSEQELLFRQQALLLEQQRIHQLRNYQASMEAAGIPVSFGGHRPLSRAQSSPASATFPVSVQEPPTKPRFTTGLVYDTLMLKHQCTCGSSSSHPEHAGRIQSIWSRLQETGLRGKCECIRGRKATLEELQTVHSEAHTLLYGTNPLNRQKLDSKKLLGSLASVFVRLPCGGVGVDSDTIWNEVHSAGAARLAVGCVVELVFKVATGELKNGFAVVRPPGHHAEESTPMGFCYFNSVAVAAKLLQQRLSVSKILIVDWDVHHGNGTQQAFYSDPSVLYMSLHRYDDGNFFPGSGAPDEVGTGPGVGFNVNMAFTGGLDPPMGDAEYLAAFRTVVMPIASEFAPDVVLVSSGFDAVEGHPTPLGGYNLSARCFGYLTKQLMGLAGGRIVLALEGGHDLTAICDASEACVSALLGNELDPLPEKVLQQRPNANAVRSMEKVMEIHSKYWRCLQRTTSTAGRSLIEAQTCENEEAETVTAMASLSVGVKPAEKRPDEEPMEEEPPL
The target of series [33] is Histone-lysine N-methyltransferase 2A (Homo sapiens, UniProt Q03164). Kind of series: Inhibition of MLL1 (unknown origin) by fluorescence based assay.
Chain of Histone-lysine N-methyltransferase 2A (Q03164 1-2718 limits assumed): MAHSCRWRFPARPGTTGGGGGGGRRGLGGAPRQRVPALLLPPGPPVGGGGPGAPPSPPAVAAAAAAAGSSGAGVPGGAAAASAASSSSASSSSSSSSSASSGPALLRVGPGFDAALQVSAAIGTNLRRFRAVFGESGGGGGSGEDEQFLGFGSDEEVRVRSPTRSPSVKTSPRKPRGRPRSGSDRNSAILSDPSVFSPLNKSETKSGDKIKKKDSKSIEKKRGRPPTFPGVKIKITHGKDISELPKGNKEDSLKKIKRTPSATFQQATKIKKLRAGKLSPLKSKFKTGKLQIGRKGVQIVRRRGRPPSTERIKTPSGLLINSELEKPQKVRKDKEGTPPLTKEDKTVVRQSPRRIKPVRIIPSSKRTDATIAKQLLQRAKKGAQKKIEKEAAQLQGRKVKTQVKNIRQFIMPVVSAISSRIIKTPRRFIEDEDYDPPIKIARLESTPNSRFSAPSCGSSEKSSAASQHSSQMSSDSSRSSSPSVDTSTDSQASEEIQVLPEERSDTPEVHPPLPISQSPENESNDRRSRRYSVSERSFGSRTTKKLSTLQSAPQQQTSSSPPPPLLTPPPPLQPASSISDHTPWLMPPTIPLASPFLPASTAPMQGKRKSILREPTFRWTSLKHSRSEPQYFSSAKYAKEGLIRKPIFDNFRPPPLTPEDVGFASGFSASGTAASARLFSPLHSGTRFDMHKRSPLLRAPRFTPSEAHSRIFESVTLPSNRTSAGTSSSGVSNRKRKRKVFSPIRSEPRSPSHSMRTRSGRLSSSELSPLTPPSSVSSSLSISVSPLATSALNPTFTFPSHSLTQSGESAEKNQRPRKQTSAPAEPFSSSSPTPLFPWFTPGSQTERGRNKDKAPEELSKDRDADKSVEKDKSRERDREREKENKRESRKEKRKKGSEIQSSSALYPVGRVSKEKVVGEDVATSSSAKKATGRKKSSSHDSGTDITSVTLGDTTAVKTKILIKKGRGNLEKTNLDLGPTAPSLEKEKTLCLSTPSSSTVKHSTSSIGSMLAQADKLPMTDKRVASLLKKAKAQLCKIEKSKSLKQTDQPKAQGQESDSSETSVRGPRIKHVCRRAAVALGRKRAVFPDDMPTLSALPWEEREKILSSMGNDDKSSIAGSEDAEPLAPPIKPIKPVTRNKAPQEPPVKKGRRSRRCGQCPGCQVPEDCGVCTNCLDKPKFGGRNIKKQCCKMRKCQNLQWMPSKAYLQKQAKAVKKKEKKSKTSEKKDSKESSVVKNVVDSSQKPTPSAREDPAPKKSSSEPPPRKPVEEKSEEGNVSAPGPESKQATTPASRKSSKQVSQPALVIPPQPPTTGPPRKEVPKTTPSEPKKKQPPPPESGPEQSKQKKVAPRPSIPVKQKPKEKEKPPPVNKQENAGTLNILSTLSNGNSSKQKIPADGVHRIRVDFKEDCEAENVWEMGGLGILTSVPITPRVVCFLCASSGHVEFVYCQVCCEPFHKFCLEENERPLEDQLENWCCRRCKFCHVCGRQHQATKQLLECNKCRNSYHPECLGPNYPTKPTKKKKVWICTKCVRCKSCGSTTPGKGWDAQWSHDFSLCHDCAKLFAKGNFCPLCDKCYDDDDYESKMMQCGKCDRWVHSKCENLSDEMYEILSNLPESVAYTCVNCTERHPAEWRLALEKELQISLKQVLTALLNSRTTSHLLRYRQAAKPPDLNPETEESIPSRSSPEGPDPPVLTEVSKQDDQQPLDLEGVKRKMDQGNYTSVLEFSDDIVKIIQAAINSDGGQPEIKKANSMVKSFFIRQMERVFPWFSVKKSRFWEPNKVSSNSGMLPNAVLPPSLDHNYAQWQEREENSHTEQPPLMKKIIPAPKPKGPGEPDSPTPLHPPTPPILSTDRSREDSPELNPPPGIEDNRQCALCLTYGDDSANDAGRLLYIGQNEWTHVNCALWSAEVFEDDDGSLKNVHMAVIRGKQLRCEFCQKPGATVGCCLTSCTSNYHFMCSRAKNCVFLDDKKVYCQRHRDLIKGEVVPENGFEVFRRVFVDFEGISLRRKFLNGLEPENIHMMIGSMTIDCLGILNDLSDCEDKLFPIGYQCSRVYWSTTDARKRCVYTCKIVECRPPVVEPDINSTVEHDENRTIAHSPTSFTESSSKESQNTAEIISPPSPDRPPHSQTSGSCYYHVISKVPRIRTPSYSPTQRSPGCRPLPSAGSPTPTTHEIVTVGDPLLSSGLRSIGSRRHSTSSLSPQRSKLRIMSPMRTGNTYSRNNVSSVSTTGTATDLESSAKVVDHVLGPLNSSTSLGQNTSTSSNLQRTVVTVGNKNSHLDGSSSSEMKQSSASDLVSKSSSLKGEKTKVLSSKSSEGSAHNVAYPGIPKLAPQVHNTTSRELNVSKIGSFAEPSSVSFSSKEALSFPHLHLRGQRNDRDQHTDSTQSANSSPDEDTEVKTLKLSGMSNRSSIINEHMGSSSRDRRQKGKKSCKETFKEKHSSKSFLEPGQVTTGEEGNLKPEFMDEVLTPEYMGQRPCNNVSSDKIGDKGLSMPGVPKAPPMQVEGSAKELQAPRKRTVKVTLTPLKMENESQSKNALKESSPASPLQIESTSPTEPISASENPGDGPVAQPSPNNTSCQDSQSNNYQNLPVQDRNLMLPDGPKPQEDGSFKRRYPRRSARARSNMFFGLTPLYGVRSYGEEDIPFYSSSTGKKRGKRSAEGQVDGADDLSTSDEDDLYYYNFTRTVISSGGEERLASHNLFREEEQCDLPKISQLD
Chain of Histone-lysine N-methyltransferase 2A (Q03164 2719-3969 limits assumed): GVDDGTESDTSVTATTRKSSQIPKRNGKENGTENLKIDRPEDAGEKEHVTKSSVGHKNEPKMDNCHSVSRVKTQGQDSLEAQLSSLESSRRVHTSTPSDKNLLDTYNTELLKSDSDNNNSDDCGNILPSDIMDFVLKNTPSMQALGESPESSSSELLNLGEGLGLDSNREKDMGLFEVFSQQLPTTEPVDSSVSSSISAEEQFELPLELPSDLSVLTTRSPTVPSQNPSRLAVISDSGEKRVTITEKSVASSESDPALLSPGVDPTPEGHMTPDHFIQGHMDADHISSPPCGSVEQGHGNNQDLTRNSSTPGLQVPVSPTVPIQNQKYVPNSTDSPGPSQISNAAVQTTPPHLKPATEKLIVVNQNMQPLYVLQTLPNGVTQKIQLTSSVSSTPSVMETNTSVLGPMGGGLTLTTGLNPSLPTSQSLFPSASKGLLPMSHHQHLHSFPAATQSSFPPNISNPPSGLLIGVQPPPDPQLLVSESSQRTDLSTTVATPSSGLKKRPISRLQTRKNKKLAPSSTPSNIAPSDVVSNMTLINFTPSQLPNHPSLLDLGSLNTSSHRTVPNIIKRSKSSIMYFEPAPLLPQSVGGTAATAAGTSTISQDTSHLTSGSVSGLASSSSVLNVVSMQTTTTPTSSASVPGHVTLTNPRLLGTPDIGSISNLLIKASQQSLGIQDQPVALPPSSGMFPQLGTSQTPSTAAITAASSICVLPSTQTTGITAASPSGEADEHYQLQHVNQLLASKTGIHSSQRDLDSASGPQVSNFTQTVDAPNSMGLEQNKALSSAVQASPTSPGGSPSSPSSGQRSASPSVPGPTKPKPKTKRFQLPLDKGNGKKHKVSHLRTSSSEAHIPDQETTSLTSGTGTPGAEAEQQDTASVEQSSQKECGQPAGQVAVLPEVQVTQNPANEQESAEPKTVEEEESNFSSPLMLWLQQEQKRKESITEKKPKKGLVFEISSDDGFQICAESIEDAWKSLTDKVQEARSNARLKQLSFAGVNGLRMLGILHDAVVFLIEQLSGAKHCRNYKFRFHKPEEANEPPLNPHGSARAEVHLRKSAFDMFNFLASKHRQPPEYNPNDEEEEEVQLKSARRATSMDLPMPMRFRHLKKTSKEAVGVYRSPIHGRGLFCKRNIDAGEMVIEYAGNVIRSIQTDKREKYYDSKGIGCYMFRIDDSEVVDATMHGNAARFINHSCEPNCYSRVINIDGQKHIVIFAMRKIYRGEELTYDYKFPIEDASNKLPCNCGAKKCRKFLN
In series [34] the test system is MV4-11. Description: cells. It is filed as functional, cell-based. Particulars: Homo sapiens, MV4-11, 72 h.
Description: Antiproliferative activity against human MV4-11 cells assessed as inhibition of cell growth measured after 72 hrs by CellTiterGlo assay

As for `Cc1c(F)c(N)cc(C(=O)Nc2cc(-c3ccc(C(=O)N4CCOCC4)cc3)ccc2N2CCN(C)CC2)c1Cl`, the inhibition of growth at 0.2 µM with MV4-11 [1] amounted to 48%; in the series on MV4-11 [7] it was 36.8%; in the series with MV4-11 [13], 74.7%; with MV4-11 [21], 23.9%. Also, the inhibition of growth at 0.1 µM with MV4-11 [2] is 19.4%; in the series on MV4-11 [5], 88.1%; in the series with MV4-11 [8], 49.3%. Moreover, the Activity in the series with MV4-11 [3] worked out at 1.62%; in the series on MV4-11 [4], 54.05%; in the series on MV4-11 [12], 3.05%; with MV4-11 [16] it was 1.48%; with MV4-11 [22], 16.81%; with MV4-11 [23], 1.08%. Further, the Activity is on record as 1.55% in the series with MV4-11 [25] and 7.03% with MV4-11 [26]. Also, the results for the inhibition of growth at 0.5 µM in the series with MV4-11 [6] and with MV4-11 [9] were 65.2% and 73.2%, respectively. The inhibition of growth at 1 µM with MV4-11 [10] is 77.1%; in the series with MV4-11 [19] it was 61.6%; in the series on MV4-11 [20] it was 57.4%; in the series with MV4-11 [28] it was 52.1%. For the same compound, the inhibition of growth at 0.4 µM amounted to 73.3% in the series on MV4-11 [11], 55% in the series on MV4-11 [17], 40% in the series on MV4-11 [24] and 90.8% with MV4-11 [27]. Also, the figures for the inhibition of growth at 0.05 µM in the series on MV4-11 [14] and in the series on MV4-11 [18] were 46.6% and 30.1%, respectively. In addition, the inhibition of growth at 2 µM with MV4-11 [15] came to 89.4%; in the series with MV4-11 [29], 95.2%.
With `Cc1c(F)c(N)cc(C(=O)Nc2cc(-c3ccc(C(=O)NCc4ccc(/C=C/C(=O)NO)cc4)cc3)ccc2N2CCN(C)CC2)c1Cl`, the values for the Activity entry (in [30]; with MV4-11 [31]; in series [32]) were “Non-toxic”, 19.42% and “Non-toxic”, respectively. Further, the IC50 (commonly the point on the concentration scale where inhibition reaches its midpoint) was determined as 4690 nM on Histone deacetylase 4, 131 nM in series [33] and 65 nM in the series with MV4-11 [34].
